Results as given in ChEMBL document CHEMBL5154907, “Discovery and Anti-Inflammatory Activity Evaluation of a Novel CDK8 Inhibitor through Upregulation of IL-10 for the Treatment of Inflammatory Bowel Disease In Vivo” (J Med Chem, 2022).

Columns and labels:
[1] = target: CDK8/Cyclin C (Homo sapiens) (UniProt P49336+P24863); experiment: Inhibition of recombinant full length His tagged human CDK8/Cyclin C expressed in Baculovirus at 200 nM incubated for 60 mins in presence of ATP by ADP-Glo kinase assay
[2] = system: BMDC; experiment: Anti-inflammatory activity against R848-stimulated mouse BMDC cells assessed as upregulation of IL-10 production at 5 uM treated for 24 hrs followed by R848 stimulation for 12 hrs by ELISA method (reference value: 100 %); format: functional; conditions: time 36 hrs
[3] = Transcriptional activity of AP-1 in R848-stimulated mouse BMDC cells transfected with pAP1-luc assessed as ratio of AP-1 activity at 5 uM treated for 24 hrs followed by R848 stimulation for 4 hrs by luminescence based microplate reader analysis relative to control; format: functional; conditions: time 28 hrs
[4] = target: CDK8/Cyclin C (Homo sapiens, UniProt P49336); experiment: Inhibition of recombinant full length His tagged human CDK8/Cyclin C expressed in Baculovirus incubated for 60 mins in presence of ATP by ADP-Glo kinase assay
CDK8/Cyclin C, sequence (P49336 whole entry): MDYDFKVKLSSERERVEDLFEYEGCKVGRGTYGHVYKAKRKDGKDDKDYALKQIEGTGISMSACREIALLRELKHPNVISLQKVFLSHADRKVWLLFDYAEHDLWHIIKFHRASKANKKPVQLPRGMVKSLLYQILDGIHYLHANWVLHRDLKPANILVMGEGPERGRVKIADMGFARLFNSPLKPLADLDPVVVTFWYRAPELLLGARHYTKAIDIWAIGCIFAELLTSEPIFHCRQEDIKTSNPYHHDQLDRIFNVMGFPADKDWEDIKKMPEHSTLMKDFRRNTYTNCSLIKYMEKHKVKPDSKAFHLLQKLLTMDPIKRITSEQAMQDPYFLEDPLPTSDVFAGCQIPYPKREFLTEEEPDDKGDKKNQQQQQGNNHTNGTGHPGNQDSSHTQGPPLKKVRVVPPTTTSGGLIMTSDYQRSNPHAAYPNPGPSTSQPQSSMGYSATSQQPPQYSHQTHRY
CDK8/Cyclin C, sequence (P24863 whole entry, further chain): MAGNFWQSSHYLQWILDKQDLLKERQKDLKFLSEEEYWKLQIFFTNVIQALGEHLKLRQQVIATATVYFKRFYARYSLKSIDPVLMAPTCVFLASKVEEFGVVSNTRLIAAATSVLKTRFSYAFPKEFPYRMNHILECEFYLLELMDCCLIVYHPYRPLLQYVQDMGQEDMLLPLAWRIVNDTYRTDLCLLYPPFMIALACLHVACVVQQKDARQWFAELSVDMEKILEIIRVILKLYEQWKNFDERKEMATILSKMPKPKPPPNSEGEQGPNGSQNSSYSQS

inhibition [1] [%]	IC50 [4] [nM]	SMILES	Activity [2] [%]	Ratio [3]
38		Cc1cc(C)c(NC(=O)c2cc(O)cc(-c3ccc(C(=O)N4CCNCC4)cc3)c2)c(C)c1	59	
36		COc1cccc(NC(=O)c2cc(O)cc(-c3ccc(C(=O)N4CCNCC4)cc3)c2)c1	17	
67	162	O=C(Nc1ccccc1)c1cccc(-c2ccc(C(=O)N3CCNCC3)cc2)c1		1.7
77		Cc1ccc(NC(=O)c2cncc(-c3ccc(C(=O)N4CCNCC4)cc3)c2)cc1	62	
19		O=c1cc(-c2ccccc2)oc2cc(-c3ccc(N4CCOCC4)cc3)cc(O)c12	23	
54		CC(=O)Nc1ccc(-c2cc(O)c3c(=O)cc(-c4ccccc4)oc3c2)cc1	49	
20		O=C(Nc1cccc(F)c1)c1cc(O)cc(-c2ccc(C(=O)N3CCNCC3)cc2)c1	26	
31		CCc1ccc(-c2cc(O)c3c(=O)cc(-c4ccccc4)oc3c2)cc1		
58		CC(C)c1ccccc1NC(=O)c1cncc(-c2ccc(C(=O)N3CCNCC3)cc2)c1	78	
61		COc1ccc(NC(=O)c2cc(O)cc(-c3ccc(C(=O)N4CCNCC4)cc3)c2)cc1	56	
47		CN(C)Cc1ccc(-c2cc(O)c3c(=O)cc(-c4ccccc4)oc3c2)cc1	82	
23		O=C(Nc1ccc(C(F)(F)F)cc1)c1cncc(-c2ccc(C(=O)N3CCNCC3)cc2)c1	19	
31		Nc1ccc(NC(=O)c2cc(O)cc(-c3ccc(C(=O)N4CCNCC4)cc3)c2)cc1	20	
28		CC(C)c1ccc(NC(=O)c2cc(O)cc(-c3ccc(C(=O)N4CCNCC4)cc3)c2)cc1	53	
11		Cn1cc(-c2cc(O)c3c(=O)cc(-c4ccccc4)oc3c2)cn1	57	
24		O=c1cc(-c2ccccc2)oc2cc(-c3ccncc3)cc(O)c12	73	1.2
54		CC(C)(C)c1ccc(NC(=O)c2cncc(-c3ccc(C(=O)N4CCNCC4)cc3)c2)cc1	63	
62	177	CN(C)c1ccc(-c2cc(O)c3c(=O)cc(-c4ccccc4)oc3c2)cc1		1.4
65	134	CC(=O)Nc1cccc(NC(=O)c2cncc(-c3ccc(C(=O)N4CCNCC4)cc3)c2)c1	78	
53		CC(C)c1ccccc1NC(=O)c1cc(O)cc(-c2ccc(C(=O)N3CCNCC3)cc2)c1	23	
12		O=C(Nc1ccc(F)cc1)c1cc(O)cc(-c2ccc(C(=O)N3CCNCC3)cc2)c1	42	
55		O=C(Nc1ccccc1F)c1cncc(-c2ccc(C(=O)N3CCNCC3)cc2)c1	62	
15		O=C(Nc1cccc(C(F)(F)F)c1)c1cc(O)cc(-c2ccc(C(=O)N3CCNCC3)cc2)c1	19	
42		O=C(Nc1cccc(F)c1)c1cncc(-c2ccc(C(=O)N3CCNCC3)cc2)c1	53	

The next lines start with the compound.

SMILES	inhibition [1] [%]	IC50 [4] [nM]	Activity [2] [%]	Ratio [3]
CCN1CCN(c2ccc(-c3cc(O)c4c(=O)cc(-c5ccccc5)oc4c3)cc2)CC1	29		40	
O=C(Nc1cccc(Cl)c1)c1cncc(-c2ccc(C(=O)N3CCNCC3)cc2)c1	47		39	
Nc1ncc(-c2ccc(C(=O)N3CCNCC3)cc2)cc1C(=O)Nc1ccccc1	62	134	61	2.7
COc1cc(OC)c(-c2cc(O)c3c(=O)cc(-c4ccccc4)oc3c2)c(OC)c1	56	205		
CN1CCN(Cc2ccc(-c3cc(O)c4c(=O)cc(-c5ccccc5)oc4c3)cc2)CC1	25		36	1.1
O=c1cc(-c2ccccc2)oc2cc(-c3ccc(C(F)(F)F)cc3)cc(O)c12	28	2110		1.4
Cc1ccc(NC(=O)c2cc(O)cc(-c3ccc(C(=O)N4CCNCC4)cc3)c2)cc1	21		34	
CN1CCN(C(=O)c2ccc(-c3cc(O)c4c(=O)cc(-c5ccccc5)oc4c3)cc2)CC1			19	
CC(=O)Nc1ccc(NC(=O)c2cc(O)cc(-c3ccc(C(=O)N4CCNCC4)cc3)c2)cc1	45		30	
O=c1cc(-c2ccccc2)oc2cc(-c3ccoc3)cc(O)c12	29		48	
O=C(NC1CCCCC1)c1cncc(-c2ccc(C(=O)N3CCNCC3)cc2)c1	53		59	
CN(C)C(=O)c1ccc(-c2cc(O)c3c(=O)cc(-c4ccccc4)oc3c2)cc1	43		76	
CC1CCc2nc(N)c(C#N)c(-c3cccnc3)c2C1 (stereo not given)		211	66	2.5
CC(=O)Nc1ccccc1NC(=O)c1cncc(-c2ccc(C(=O)N3CCNCC3)cc2)c1	47		29	
O=C(Nc1ccc(F)cc1)c1cncc(-c2ccc(C(=O)N3CCNCC3)cc2)c1	60		75	
Cc1noc(C)c1-c1cc(O)c2c(=O)cc(-c3ccccc3)oc2c1	12		30	
COc1ccccc1NC(=O)c1cncc(-c2ccc(C(=O)N3CCNCC3)cc2)c1	60		62	
CC(=O)Nc1cccc(NC(=O)c2cc(O)cc(-c3ccc(C(=O)N4CCNCC4)cc3)c2)c1			12	
O=C(NCCc1ccccc1)c1cncc(-c2ccc(C(=O)N3CCNCC3)cc2)c1	52		62	
O=c1cc(-c2ccccc2)oc2cc(-c3ccsc3)cc(O)c12	6			
CC(C)c1cccc(NC(=O)c2cncc(-c3ccc(C(=O)N4CCNCC4)cc3)c2)c1	64			
COc1ccc(-c2cc(O)c3c(=O)cc(-c4ccccc4)oc3c2)cc1	47		76	
O=C(NCc1ccoc1)c1cncc(-c2ccc(C(=O)N3CCNCC3)cc2)c1	61		60	
Nc1cccc(NC(=O)c2cc(O)cc(-c3ccc(C(=O)N4CCNCC4)cc3)c2)c1	39		53	

SMILES	inhibition [1] [%]	IC50 [4] [nM]	Activity [2] [%]	Ratio [3]
O=C(Nc1ccccc1F)c1cc(O)cc(-c2ccc(C(=O)N3CCNCC3)cc2)c1	19		42	
O=c1cc(-c2ccccc2)oc2cc(-c3ccc(OC(F)(F)F)cc3)cc(O)c12	48		44	
COc1cc(-c2cc(O)c3c(=O)cc(-c4ccccc4)oc3c2)cc(OC)c1OC	27		78	
CC(C)c1cccc(NC(=O)c2cc(O)cc(-c3ccc(C(=O)N4CCNCC4)cc3)c2)c1	29		62	
O=C(NCc1ccccc1)c1cncc(-c2ccc(C(=O)N3CCNCC3)cc2)c1	62		72	
O=C(c1ccc(-c2cc(O)c3c(=O)cc(-c4ccccc4)oc3c2)cc1)N1CCOCC1	6		25	
CC(C)(C)c1ccc(NC(=O)c2cc(O)cc(-c3ccc(C(=O)N4CCNCC4)cc3)c2)cc1	35		72	
O=c1cc(-c2ccccc2)oc2cc(-c3cncnc3)cc(O)c12	35	548		
CCCN1CCN(C(=O)c2ccc(-c3cc(O)c4c(=O)cc(-c5ccccc5)oc4c3)cc2)CC1	29		53	
Nc1cccc(NC(=O)c2cncc(-c3ccc(C(=O)N4CCNCC4)cc3)c2)c1	59		60	
O=C(c1ccc(-c2cc(O)c3c(=O)cc(-c4ccccc4)oc3c2)cc1)N1CCSCC1	19		46	
O=c1cc(-c2ccccc2)oc2cc(-c3ccc(Cl)cc3)cc(O)c12	31			
CCN1CCN(C(=O)c2ccc(-c3cc(O)c4c(=O)cc(-c5ccccc5)oc4c3)cc2)CC1	57		23	
O=c1cc(-c2ccccc2)oc2cc(-c3ccc(CN4CCOCC4)cc3)cc(O)c12	43		53	
CCc1ccc(NC(=O)c2cc(O)cc(-c3ccc(C(=O)N4CCNCC4)cc3)c2)cc1	48		72	
Cc1cccc(NC(=O)c2cc(O)cc(-c3ccc(C(=O)N4CCNCC4)cc3)c2)c1	20		76	
CC(C)c1ccc(NC(=O)c2cncc(-c3ccc(C(=O)N4CCNCC4)cc3)c2)cc1	62		61	
O=C(Nc1ccc(C(F)(F)F)cc1)c1cc(O)cc(-c2ccc(C(=O)N3CCNCC3)cc2)c1	40		8	
O=C(Nc1cccc(OC(F)(F)F)c1)c1cncc(-c2ccc(C(=O)N3CCNCC3)cc2)c1	44		48	
O=C(Nc1cccc(OC(F)(F)F)c1)c1cc(O)cc(-c2ccc(C(=O)N3CCNCC3)cc2)c1			10	
CN1CCN(c2ccc(-c3cc(O)c4c(=O)cc(-c5ccccc5)oc4c3)cc2)CC1	42		53	1.4
O=C(Nc1ccc(OC(F)(F)F)cc1)c1cc(O)cc(-c2ccc(C(=O)N3CCNCC3)cc2)c1	5		88	
O=C(Nc1ccc(OC(F)(F)F)cc1)c1cncc(-c2ccc(C(=O)N3CCNCC3)cc2)c1	55		62	
